# Test results: patent publication US20110230481A2, “DERIVATIVES OF TETRABROMOBENZIMIDAZOLE, A PROCESS FOR THE PREPARATION THEREOF, A PHARMACEUTICAL COMPOSITION COMPRISING THE SAME, A METHOD OF USING THE SAME, A METHOD FOR MODULATING OR REGULATING SERINE/THREONINE KINASES, AND SERINE/THREONINE KINASES MODULATING AGENT” (SELVITA S.A., priority 2009, published 2011)
# Experiments:
# [1] = test system: human acute myeloid leukemia MOLM-13 cells; test: Growth inhibition test (MTS); type: cell-based; conditions: Homo sapiens, MOLM-13; MOLM13; 72 hours; read-out: Cytotoxicity in MTS assay (ED50)
# Procedure: (§1) Ten thousand cells of acute myeloid leukemia MOLM-13 were inoculated into each well of a 96-well microplate (manufactured by Corning Corp.) using RPMI 8226 medium (culture medium) containing 10% fetal calf serum (FCS). The same day, a dimethyl sulfoxide (DMSO) solution of each test compound prepared in a concentration of 10 mmol/L was further diluted with DMSO to the desired concentrations (0.1, 0.5, 1, 2.5, 5 and 10 micromol/L), and the diluted solution was added to each well. The individual wells were further cultured in 5% carbon dioxide at 37° C. for 72 hours. After completion of the culture, 10 μl MTS (3-(4,5-Dimethyl-2-thiazolyl)-5-(carboxymethoxyphenyl)-2-(4-sulfophenyl)-2H-tetrazolium, inner salt assay (CellTiter96® AQueous One Solution Cell Proliferation Assay, Promega) was added to each well, and culturing was performed in 5% carbon dioxide at 37° C. for 2 hours. Using a microplate spectrophotometer (Synergy 2 multi-mode microplate reader (BioTek)), the absorbance of each well was measured at 490 nm. The value for cells not incorporated with a test compound was designated as 100%. By comparing these values with the absorbance difference obtained at the well in which each test compound was added, the cell viability (% viability) after treatment with the test compound was calculated.
# [2] = test system: human myelomonocytic, biphenotypic leukemia MV4-11 cells; test: Growth inhibition test (MTS); type: cell-based; conditions: Homo sapiens, MV4-11; MV-4-11; 72 hours; read-out: Cytotoxicity in MTS assay (ED50)
# Procedure: as §1, with “human myelomonocytic, biphenotypic” for “acute myeloid”, “MV4-11” for “MOLM-13”, “Iscove's MDM” for “RPMI 8226”
# [3] = test system: human acute lymphocytic leukemia E6.1 Jurkat cells; test: Growth inhibition test (MTS); type: cell-based; conditions: Homo sapiens, 72 hours, read-out: Cytotoxicity in MTS assay (ED50)
# Procedure: (§2) Twenty thousand cells of human acute lumphocytic leukemia E6.1 Jurkat were inoculated into each well of a 96-well microplate (manufactured by Corning Corp.) using RPMI 8226 medium (culture medium) containing 10% fetal calf serum (FCS). The same day, a dimethyl sulfoxide (DMSO) solution of each test compound prepared in a concentration of 10 mmol/L was further diluted with DMSO to the desired concentrations (0.1, 0.5, 1, 2.5, 5 and 10 micromol/L), and the diluted solution was added to each well. The individual wells were further cultured in 5% carbon dioxide at 37° C. for 72 hours. After completion of the culture, 10 μl MTS (3-(4,5-Dimethyl-2-thiazolyl)-5-(carboxymethoxyphenyl)-2-(4-sulfophenyl)-2H-tetrazolium, inner salt assay (CellTiter96® AQueous One Solution Cell Proliferation Assay, Promega) was added to each well, and culturing was performed in 5% carbon dioxide at 37° C. for 2 hours. Using a microplate spectrophotometer (Synergy 2 multi-mode microplate reader (BioTek)), the absorbance of each well was measured at 490 nm. The value for cells not incorporated with a test compound was designated as 100%. By comparing these values with the absorbance difference obtained at the well in which each test compound was added, the cell viability (% viability) after treatment with the test compound was calculated.
# PIM1 = PIM1 (Homo sapiens, UniProt P11309); test: Radiometric kinase assay (HotSpot); conditions: for Selectivity for Pim-1 over CK2α: ratio of IC50 values
# Sequence of PIM1 (P11309 whole entry): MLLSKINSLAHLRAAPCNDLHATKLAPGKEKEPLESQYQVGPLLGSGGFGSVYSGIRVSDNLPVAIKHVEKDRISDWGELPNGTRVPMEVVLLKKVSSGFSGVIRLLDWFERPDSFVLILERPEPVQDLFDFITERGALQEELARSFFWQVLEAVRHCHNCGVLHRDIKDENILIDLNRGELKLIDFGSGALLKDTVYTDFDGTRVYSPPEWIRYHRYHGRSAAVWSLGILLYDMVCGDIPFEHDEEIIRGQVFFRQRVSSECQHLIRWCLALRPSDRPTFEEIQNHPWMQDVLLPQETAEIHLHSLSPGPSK
# Procedure: (§3) Kinase assays were performed at Reaction Biology Corporation (www.reactionbiology.com, Malvern Pa.) using the “HotSpot” assay platform. This assay platform is based on a radiometric filtration binding assay and is considered as the “gold standard” to which non-radiometric methods are compared. In this assay format, the kinase reaction is performed in the presence of 32 P-γ-ATP or 33 P-γ-ATP, followed by binding of the final radioisotope labeled peptide product to filters after which unreacted phosphate is washed away and the levels of phosphorylated peptide are measured.
# PIM2 = PIM2 (Homo sapiens, UniProt Q9P1W9); test: Radiometric kinase assay (HotSpot); conditions: for Selectivity for Pim-2 over CK2α: ratio of IC50 values
# Sequence of PIM2 (Q9P1W9 whole entry): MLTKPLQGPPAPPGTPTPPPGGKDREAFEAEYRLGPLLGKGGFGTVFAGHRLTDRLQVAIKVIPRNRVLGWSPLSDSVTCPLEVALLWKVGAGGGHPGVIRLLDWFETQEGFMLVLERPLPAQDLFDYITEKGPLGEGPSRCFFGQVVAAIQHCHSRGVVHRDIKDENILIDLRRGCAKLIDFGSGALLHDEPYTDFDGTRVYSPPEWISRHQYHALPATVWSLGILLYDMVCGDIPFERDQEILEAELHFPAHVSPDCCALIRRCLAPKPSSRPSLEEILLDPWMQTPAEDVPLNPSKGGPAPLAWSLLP
# Procedure: as §3
# PIM3 = PIM3 (Homo sapiens, UniProt Q86V86); test: Radiometric kinase assay (HotSpot); conditions: for Selectivity for Pim-3 over CK2α: ratio of IC50 values
# Procedure: as §3
# CK2α = CK2α (Homo sapiens, UniProt P68400); test: Radiometric kinase assay (HotSpot)
# Sequence of CK2α (P68400 whole entry): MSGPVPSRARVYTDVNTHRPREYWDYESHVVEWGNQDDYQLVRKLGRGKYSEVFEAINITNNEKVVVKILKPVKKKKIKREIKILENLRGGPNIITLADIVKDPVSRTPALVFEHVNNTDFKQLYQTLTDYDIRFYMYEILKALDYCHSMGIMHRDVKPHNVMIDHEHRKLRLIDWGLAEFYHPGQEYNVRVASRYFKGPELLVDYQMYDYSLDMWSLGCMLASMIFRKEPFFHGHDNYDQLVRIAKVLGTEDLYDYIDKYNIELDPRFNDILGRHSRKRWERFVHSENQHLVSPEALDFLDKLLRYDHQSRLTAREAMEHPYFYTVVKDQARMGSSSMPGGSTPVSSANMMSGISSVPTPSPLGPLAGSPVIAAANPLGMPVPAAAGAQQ
# Procedure: as §3
# [4] = test system: human prostate adenocarcinoma PC3 cells; test: Growth inhibition test (MTS); type: cell-based; conditions: PC-3; 72 hours
# Procedure: as §2, with “Two” for “Twenty”, “prostate adenocarcinoma PC3” for “acute lumphocytic leukemia E6.1 Jurkat”, “Corp.), and” for “Corp.)”, “F12K (Ham's F12:[…]” for “RPMI”, “[…] 1:1)” for “8226”
# [5] = test system: human prostate carcinoma DU145 cells; test: Growth inhibition test (MTS); type: cell-based; conditions: 72 hours
# Procedure: as §2, with “Two” for “Twenty”, “prostate carcinoma DU145” for “acute lumphocytic leukemia E6.1 Jurkat”, “Corp.), and” for “Corp.)”, “DMEM” for “RPMI 8226”, “innersalt” for “inner salt”
# Solubility in pH 7.4 = conditions: phosphate buffer
# Procedure: Compound stock solutions were prepared in DMSO to final concentrations of 1000 mM. For each compound studied, 12 solutions were prepared to cover concentrations from 0.001 to 1 mM. As a solvent 0.2 mM phosphate buffer (pH 7.4) was used. The final concentration of DMSO in the solutions was 1% (v/v). The solutions were left mixing for 24 hours at 37° C., 350 rpm and following incubation centrifuged for 5 minutes at 14500 rpm. The samples were then analyzed by RP HPLC using a C18 column and 0.2% solution of formic acid in water/acetonitrile mobile phase. […] The solubility was determined as the point as the point at which the concentration curve reaches plateau.
Compound,IC50 [1] [nM],IC50 [2] [nM],IC50 [3] [nM],IC50 (PIM1) [nM],Selectivity for Pim-1 over CK2α (PIM1),IC50 (PIM2) [nM],Selectivity for Pim-2 over CK2α (PIM2),IC50 (PIM3) [nM],Selectivity for Pim-3 over CK2α (PIM3),IC50 (CK2α) [nM],Cytotoxicity in MTS assay (ED50) [4] [nM],Cytotoxicity in MTS assay (ED50) [5] [nM],solubility at 24 h (Solubility in pH 7.4) [µM]
"Brc1c(Br)c(Br)c2[nH]c(NCCCN3CCCCC3)nc2c1Br [Compound 59, 4,5,6,7-tetrabromo-N-(3-(piperidin-1-yl)propyl)-1H-benzo[d]imidazol-2-amine]",3510,2810,4410,88,9.7,1490,0.6,189,4.5,855,,,
"Nc1ccc(Nc2nc3c(Br)c(Br)c(Br)c(Br)c3[nH]2)cc1 [Compound 86, N1-(4,5,6,7-tetrabromo-1H-benzo[d]imidazol-2-yl)benzene-1,4-diamine]",8810,5810,8270,547,1.3,1550,0.5,680,1.1,734,,,
"Brc1c(Br)c(Br)c2[nH]c(NCCCn3ccnc3)nc2c1Br [Compound 65, N-(3-(1H-imidazol-1-yl)propyl)-4,5,6,7-tetrabromo-1H-benzo[d]imidazol-2-amine]",6880,> 10000,> 10000,87.1,5.1,823,0.5,15.8,28.3,448,>10000,7720,
"Brc1c(Br)c(Br)c2[nH]c(Nc3ccccc3)nc2c1Br [Compound 79, 4,5,6,7-tetrabromo-N-phenyl-1H-benzo[d]imidazol-2-amine]",5960,4400,9060,1510,1.3,> 20000,,2960,0.7,1960,,,
"NCCCCNc1nc2c(Br)c(Br)c(Br)c(Br)c2[nH]1 [Compound 61, N-(4-aminobutyl)-4,5,6,7-tetrabromo-1H-benzo[d]imidazol-2-amine]",5950,4430,7920,5.2,74.2,199,1.9,20.2,19.1,386,,,
"NCC(O)CNc1nc2c(Br)c(Br)c(Br)c(Br)c2[nH]1 (centres unmarked) [Compound 90, 1-(4,5,6,7-tetrabromo-1H-benzo[d]imidazol-2-ylamino)-3-aminopropan-2-ol]",6910,2120,5780,9.1,12.0,90.3,1.2,7.6,14.4,110,,,72
